This note sets out measurements from ChEMBL document CHEMBL4270538, “Targeting prohibitin with small molecules to promote melanogenesis and apoptosis in melanoma cells” (Eur J Med Chem, 2018).

The target of assay [1] is Prohibitin-2 (Homo sapiens) (UniProt Q99623). In words: Induction of PHB2-mediated melanogenesis in human HBL cells assessed as pigmentation at 1 uM after 10 days relative to control. It is filed as cell-based.
For assay [2] the target is unchanged. In words: Induction of PHB2-mediated melanogenesis in human HBL cells assessed as pigmentation at 10 uM after 10 days relative to control. It is filed as cell-based.
Assay [3] addresses T1, Prohibitin 1 (Homo sapiens) (UniProt P35232).
T1 sequence (whole entry): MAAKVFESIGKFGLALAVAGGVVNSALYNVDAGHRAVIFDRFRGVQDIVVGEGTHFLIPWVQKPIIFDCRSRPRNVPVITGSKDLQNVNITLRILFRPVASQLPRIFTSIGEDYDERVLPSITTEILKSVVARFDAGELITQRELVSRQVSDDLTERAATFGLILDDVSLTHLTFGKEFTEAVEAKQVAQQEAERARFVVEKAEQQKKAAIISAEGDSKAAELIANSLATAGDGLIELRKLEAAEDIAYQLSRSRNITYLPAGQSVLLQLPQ
In words: Downregulation of PHB1 in human HBL cells at 1 to 10 uM after 24 hrs by Western blot analysis. It is filed as cell-based.

The target of assay [4] is Prohibitin-2 (Homo sapiens) (UniProt Q99623). Briefly: Binding affinity to PHB2 in human HBL cells assessed as LC3-2 accumulation at 1 to 10 uM after 24 hrs by Western blot analysis. It is filed as cell-based. In general terms: A western blot detects proteins with antibodies after separation by electrophoresis.
For assay [5] the target is unchanged. In words: Binding affinity to PHB2 in human HBL cells assessed as upregulation of MITF protein expression at 1 to 10 uM after 24 hrs by Western blot analysis. It is filed as cell-based.
Assay [6] shares this target. Briefly: Binding affinity to PHB2 in human HBL cells assessed as upregulation of tyrosinase protein expression at 1 to 10 uM after 24 hrs by Western blot analysis. It is filed as cell-based.
For assay [7], the system named is PC-3. In words: Inhibition of cell proliferation in human PC3 cells at 1 uM after 72 hrs by MTS assay relative to control. It is filed as functional. The settings on record: PC-3, 72 h. (Tetrazolium assays rely on reduction of a dye to a coloured formazan, in cell work by metabolically active cells.)
In assay [8] the test system is LNCaP. Briefly: Inhibition of cell proliferation in human LNCAP cells at 1 uM after 72 hrs by MTS assay relative to control. It is filed as functional.
The nature of assay [9]: Inhibition of cell proliferation in human EPC cells at 1 uM after 72 hrs by MTS assay relative to control. It is filed as functional.
The test system of assay [10] is HT-29. Briefly: Inhibition of cell proliferation in human HT-29 cells at 1 uM after 72 hrs by MTS assay relative to control. It is filed as functional. The settings on record: HT-29, 72 h.
Assay [11] has as its system HCT-116. In words: Inhibition of cell proliferation in human HCT116 cells at 1 uM after 72 hrs by MTS assay relative to control. It is filed as functional. The conditions noted are these: HCT-116, 72 h.
The subject of assay [12] is MCF7. In words: Inhibition of cell proliferation in human MCF7 cells at 1 uM after 72 hrs by MTS assay relative to control. The conditions noted are these: MCF7, 72 h. It is filed as functional.
Assay [13] concerns HL-60. In words: Inhibition of cell proliferation in human HL60 cells at 1 uM after 72 hrs by MTS assay relative to control. It is filed as functional. The conditions noted are these: HL-60, 72 h.
For assay [14], the system named is KB. Briefly: Inhibition of cell proliferation in human KB cells at 1 uM after 72 hrs by MTS assay relative to control. It is filed as functional.
Assay [15] has as its system HBL. In words: Inhibition of cell proliferation in human HBL cells at 1 uM after 72 hrs by MTS assay relative to control. It is filed as functional.
Assay [16] concerns PC-3. In words: Inhibition of cell proliferation in human PC3 cells at 10 uM after 72 hrs by MTS assay relative to control. The settings on record: PC-3, 72 h. It is filed as functional.
Assay [17] relates to LNCaP. In words: Inhibition of cell proliferation in human LNCAP cells at 10 uM after 72 hrs by MTS assay relative to control. It is filed as functional.
Assay [18] is described as follows: Inhibition of cell proliferation in human EPC cells at 10 uM after 72 hrs by MTS assay relative to control. It is filed as functional.
In assay [19] the test system is HT-29. In words: Inhibition of cell proliferation in human HT-29 cells at 10 uM after 72 hrs by MTS assay relative to control. It is filed as functional. The settings on record: HT-29, 72 h.
The test system of assay [20] is HCT-116. Briefly: Inhibition of cell proliferation in human HCT116 cells at 10 uM after 72 hrs by MTS assay relative to control. It is filed as functional. The settings on record: HCT-116, 72 h.
Assay [21] relates to MCF7. Briefly: Inhibition of cell proliferation in human MCF7 cells at 10 uM after 72 hrs by MTS assay relative to control. It is filed as functional. The conditions noted are these: MCF7, 72 h.
Assay [22] has as its system HL-60. Briefly: Inhibition of cell proliferation in human HL60 cells at 10 uM after 72 hrs by MTS assay relative to control. The conditions noted are these: HL-60, 72 h. It is filed as functional.
The test system of assay [23] is KB. Briefly: Inhibition of cell proliferation in human KB cells at 10 uM after 72 hrs by MTS assay relative to control. It is filed as functional.
Assay [24] deals with HBL. Briefly: Inhibition of cell proliferation in human HBL cells at 10 uM after 72 hrs by MTS assay relative to control. It is filed as functional.
Assay [25] deals with HL-60. Briefly: Inhibition of cell proliferation in human HL60 cells after 72 hrs by MTS assay. It is filed as functional, cell-based. The conditions noted are these: HL-60, 72 h.
Assay [26] relates to KB. In words: Inhibition of cell proliferation in human KB cells after 72 hrs by MTS assay. It is filed as functional, cell-based.
Assay [27] has as its target Prohibitin-2 (Homo sapiens) (UniProt Q99623). In words: Binding affinity to PHB2 in human HBL cells assessed as upregulation of ERK phosphorylation at 1 to 10 uM after 24 hrs by Western blot analysis. It is filed as cell-based.
Assay [28] has as its target RAC-alpha serine/threonine-protein kinase (Homo sapiens) (UniProt P31749). In words: Inhibition of Akt phosphorylation in human HBL cells at 1 to 10 uM after 24 hrs by Western blot analysis. It is filed as cell-based.
The target of assay [29] is T1, Prohibitin 1 (Homo sapiens). In words: Downregulation of PHB1 in human HBL cells at 0.1 to 10 uM after 24 to 48 hrs by Western blot analysis. It is filed as cell-based.
Assay [30] concerns the target Prohibitin-2 (Homo sapiens) (UniProt Q99623). In words: Induction of PHB2-mediated melanogenesis in human MM043 cells assessed as pigmentation at 1 to 10 uM after 10 days relative to control. It is filed as cell-based.
For assay [31] the target is unchanged. In words: Induction of PHB2-mediated melanogenesis in human MM162 cells assessed as pigmentation at 1 to 10 uM after 10 days relative to control. It is filed as cell-based.
For assay [32] the target is unchanged. In words: Binding affinity to PHB2 in human HBL cells assessed as upregulation of MITF protein expression at 0.1 to 10 uM after 24 to 48 hrs by Western blot analysis. It is filed as cell-based.
Assay [33] shares this target. Briefly: Binding affinity to PHB2 in human HBL cells assessed as upregulation of tyrosinase protein expression at 0.1 to 10 uM after 24 to 48 hrs by Western blot analysis. It is filed as cell-based.
Assay [34] has the same target. Briefly: Binding affinity to PHB2 in human HBL cells assessed as LC3-2 accumulation after 24 to 48 hrs by Western blot analysis. It is filed as cell-based.
The target is the same in assay [35]. Briefly: Binding affinity to PHB2 in human HBL cells assessed as upregulation of ERK phosphorylation at 0.1 to 10 uM after 24 hrs by Western blot analysis. It is filed as cell-based.
Assay [36] has the same target. In words: Binding affinity to PHB2 in human HBL cells assessed as feedback mechanism based inhibition of ERK phosphorylation at 0.1 to 10 uM after 48 hrs by Western blot analysis. It is filed as cell-based.
Assay [37] has the same target. In words: Downregulation of PHB2 in human HBL cells at 0.1 to 10 uM after 24 to 48 hrs by Western blot analysis. It is filed as cell-based.
The target in assay [38] is RAC-alpha serine/threonine-protein kinase (Homo sapiens) (UniProt P31749). In words: Inhibition of Akt phosphorylation in human HBL cells at 0.1 to 10 uM after 24 to 48 hrs by Western blot analysis. It is filed as cell-based.
Chain of RAC-alpha serine/threonine-protein kinase (Homo sapiens) (P31749 whole entry): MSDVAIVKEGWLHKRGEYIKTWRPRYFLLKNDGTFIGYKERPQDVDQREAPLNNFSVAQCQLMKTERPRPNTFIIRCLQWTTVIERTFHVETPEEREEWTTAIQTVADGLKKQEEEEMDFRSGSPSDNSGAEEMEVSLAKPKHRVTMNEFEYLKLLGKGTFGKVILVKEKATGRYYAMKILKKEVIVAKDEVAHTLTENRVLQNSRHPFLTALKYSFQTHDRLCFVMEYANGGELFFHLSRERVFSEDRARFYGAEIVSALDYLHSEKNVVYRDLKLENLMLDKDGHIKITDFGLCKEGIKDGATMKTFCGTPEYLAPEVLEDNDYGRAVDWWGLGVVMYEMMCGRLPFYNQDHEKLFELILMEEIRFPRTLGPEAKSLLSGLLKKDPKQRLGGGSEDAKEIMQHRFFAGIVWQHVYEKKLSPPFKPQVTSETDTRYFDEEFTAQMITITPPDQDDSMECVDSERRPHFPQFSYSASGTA
For assay [39], the target named is T1, Prohibitin 1 (Homo sapiens). Briefly: Downregulation of PHB1 in human HL60 cells at 0.1 to 10 uM after 24 hrs by Western blot analysis. It is filed as cell-based.
Assay [40] concerns the target Prohibitin-2 (Homo sapiens) (UniProt Q99623). Briefly: Downregulation of PHB2 in human HL60 cells at 0.1 to 10 uM after 24 hrs by Western blot analysis. It is filed as cell-based.
For assay [41] the target is unchanged. Briefly: Binding affinity to PHB2 in human HL60 cells assessed as LC3-2 accumulation at 0.1 to 10 uM after 24 hrs by Western blot analysis. It is filed as cell-based.
The target is the same in assay [42]. Briefly: Binding affinity to PHB2 in human HL60 cells assessed as upregulation of ERK phosphorylation at 0.1 uM after 24 hrs by Western blot analysis. It is filed as cell-based.
The target of assay [43] is RAC-alpha serine/threonine-protein kinase (Homo sapiens) (UniProt P31749). In words: Inhibition of Akt phosphorylation in human HL60 cells after 24 to 48 hrs by Western blot analysis. It is filed as cell-based.

The structures appear in SMILES notation. Activity calls are given as the source filed them. No cut-off for these calls is given here.

Chain of Prohibitin-2 (Homo sapiens) (Q99623 whole entry): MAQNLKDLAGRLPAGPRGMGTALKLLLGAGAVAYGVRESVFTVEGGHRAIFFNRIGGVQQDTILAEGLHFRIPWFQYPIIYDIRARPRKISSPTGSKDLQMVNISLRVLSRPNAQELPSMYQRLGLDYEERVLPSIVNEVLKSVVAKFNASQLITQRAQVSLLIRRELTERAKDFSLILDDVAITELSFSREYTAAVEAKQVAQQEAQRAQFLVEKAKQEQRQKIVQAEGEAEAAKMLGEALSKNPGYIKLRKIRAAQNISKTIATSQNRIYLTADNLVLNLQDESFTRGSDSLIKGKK

As a reminder, the inhibition is the drop in the measured response relative to a control, in per cent. A word on the IC50: it is the concentration needed to halve the response being measured. Turning to `NCCOCCOCCNc1nc(NCc2cccc(F)c2)nc(Oc2c(F)c(F)c(F)c(F)c2F)n1`, the fold change (FC) is 1.05 in assay [1] and 1.25 in assay [2]. Further, the outcome in [3], in assay [4], in assay [5], in assay [6] and in assay [27] was Active. Besides, the inhibition at 1 µM worked out at 15% with PC-3 [7]; 11% in the assay with LNCaP [8]; 27% in [9]; 12% in the assay on HT-29 [10]; 10% in the assay on HCT-116 [11]; 11% in the assay on MCF7 [12]. In addition, the results for the inhibition at 1 µM in the assay on HL-60 [13], in the assay on KB [14] and in the assay on HBL [15] were 31%, 29% and 9%, respectively. Also, the inhibition at 10 µM in the assay with PC-3 [16] stood at 52%; with LNCaP [17], 32%; in assay [18], 58%; in the assay with HT-29 [19], 20%; in the assay on HCT-116 [20] it was 36%; in the assay on MCF7 [21] it was 27%. Further, the inhibition at 10 µM is 59% with HL-60 [22], 89% with KB [23] and 18% in the assay on HBL [24]. In addition, the IC50 in the assay with HL-60 [25] worked out at 15 µM; with KB [26], 33 µM. Besides, the inhibition entry in [28] was “Active”.

For `CN(C)CCNc1nc(Oc2c(F)c(F)c(F)c(F)c2F)nc(N2CCCc3ccccc3C2)n1`, the outcome in [29], in [30], in [31], in assay [32], in assay [33] and in [35] was Active. Also, the outcome in [37], in assay [39], in [40], in assay [41] and in [42] was Active. The fold change (FC) is 0.89 in assay [1] and 2.23 in [2]. The Activity entry in assay [34] is “Dose-dependent effect”. Also, the inhibition result in [36] and in assay [38] was “Active” each time. In addition, the IC50 with HL-60 [25] was 95 µM; in the assay with KB [26], 63 µM. Besides, the inhibition entry in assay [43] is “Dose-dependent effect”.
